Literature values, collected in patent publication US20140350454A1, “IRRADIATION APPARATUS” (Photocure ASA, priority 2011, published 2014).
Where two headings read alike, the source gives them in different places.

Tests used:
VIN [1] = settings: bioadhesive patch 38 mg/cm^2 5-ALA in dry form, in situ 4-6 hours; 630 nm non-laser lamp, 20-30 min, 100 J/cm^2; repeated PDT
lesions of VIN 1-3 = settings: 25 patients, 111 lesions of VIN 1-3; 10 ml 5-ALA solution 20% w/w in saline, 4-5 hours under occlusion; 635 nm laser, 100 J/cm^2, 150 mW/cm^2; repeated PDT
VIN [2] = settings: VIN patients, topical 5-ALA 20% w/w in Unguentum Merck, 4 hours incubation, 630 nm non-laser light

In the case of NCC(=O)CCC(=O)O [5-ALA, 5-aminolevulinic acid], the clearance rate (VIN [1]) is given as 52%, the “complete response (of the patients)” value (lesions of VIN 1-3) is given as 52% and the response rate (VIN [2]; light dose 50 J/cm^2) is given as “unacceptably low”. For the same compound, the clearance rate (VIN [2]; light dose 100 J/cm^2) was 40-60%.
